Test results: patent publication US11802133B2, “Heterocyclic compounds as monoacylglycerol lipase inhibitors” (Hoffmann-La Roche Inc., priority 2018, dated 2023)

Tests used:
[1] = target: MAGL (recombinant wild-type) (Homo sapiens (Human), UniProt Q99685); assay: 4-NPA assay: MAGL inhibitory activity by hydrolysis of 4-nitrophenylacetate (absorbance at 405 nm); format: biochemical; conditions: measured in 4-NPA assay (footnote [a]); 1 nM MAGL, 300 μM 4-nitrophenylacetate
Method: This assay is hereinafter abbreviated “4-NPA assay”.
The plate was shaked for 1 min at 2000 rpm (Variomag Teleshake) and then incubated for 15 min at RT. […] The final concentrations in the assay were 1 nM MAGL and 300 μM 4-Nitrophenylacetate. […] A second measurement was then done after incubation for 80 min at RT. From the two measurements, the slope was calculated by subtracting the first from the second measurement.

MAGL = MAGL (Homo sapiens (Human), UniProt Q99685); assay: 2-AG assay: MAGL inhibitory activity by hydrolysis of 2-arachidonoylglycerol to arachidonic acid (mass spectrometry); format: biochemical; conditions: measured in 2-AG assay (footnote [b]); 8 μM 2-arachidonoylglycerol
Method: Alternatively, compounds were profiled for MAGL inhibitory activity by determining the enzymatic activity by following the hydrolysis of the natural substrate 2-arachidonoylglycerol resulting in arachidonic acid, which can be followed by mass spectrometry. This assay is hereinafter abbreviated “2-AG assay”.
A C18 SPE cartridge (G9205A) was used in an acetonitrile/water liquid setup. […] The activity of the compounds was calculated based on the ratio of intensities [arachidonic acid/d8-arachidonic acid].

Chain of MAGL (Q99685 whole entry, species assumed): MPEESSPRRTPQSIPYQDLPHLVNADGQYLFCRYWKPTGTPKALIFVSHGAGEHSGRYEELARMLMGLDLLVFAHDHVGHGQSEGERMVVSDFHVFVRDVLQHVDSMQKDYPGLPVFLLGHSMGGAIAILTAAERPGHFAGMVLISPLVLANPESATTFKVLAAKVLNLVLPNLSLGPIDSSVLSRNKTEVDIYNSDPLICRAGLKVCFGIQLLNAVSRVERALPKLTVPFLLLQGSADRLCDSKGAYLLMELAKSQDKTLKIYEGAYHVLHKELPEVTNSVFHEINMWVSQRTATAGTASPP
Chain of MAGL (recombinant wild-type) (Q99685 whole entry, species assumed): as above

Row | SMILES | IC50 [1] [nM] | IC50 (MAGL) [nM]
1 | CC(C)(C)c1csc(CC2CCN(C(=O)N3CC[C@@H]4OCC(=O)N[C@@H]4C3)CC2)n1 (racemic) [Example 3, rac-(4aR,8aS)-6-[4-[(4-tert-Butylthiazol-2-yl)methyl]piperidine-1-carbonyl]-4,4a,5,7,8,8a-hexahydropyrido[4,3-b][1,4]oxazin-3-one] | 66 | 
2 | O=C1CO[C@H]2CCN(C(=O)N3CCC(Cc4ccc(C(F)(F)F)cc4)CC3)C[C@H]2N1 (racemic) [Example 11, rac-(4aR,8aS)-6-[4-[[4-(Trifluoromethyl)phenyl]methyl]piperidine-1-carbonyl]-4,4a,5,7,8,8a-hexahydropyrido[4,3-b][1,4]oxazin-3-one] | 42 | 
3 | O=C1CO[C@H]2CCN(C(=O)N3CCN(Cc4ccc(C(F)(F)F)cc4)CC3)C[C@H]2N1 (racemic) [Example 21, rac-(4aR,8aS)-6-(4-(4-(Trifluoromethyl)benzyl)piperazine-1-carbonyl)hexahydro-2H-pyrido[4,3-b][1,4]oxazin-3(4H)-one] | 909 | 
4 | O=C1CO[C@H]2CCN(C(=O)N3CC(Oc4ccc(C(F)(F)F)c(Cl)c4)C3)C[C@H]2N1 [Example 261] |  | 48
5 | N#Cc1cc(OC2CCN(C(=O)N3CC[C@@H]4OCC(=O)N[C@@H]4C3)CC2)ccc1C(F)(F)F [Example 262] |  | 181
6 | N#Cc1cc(OC2CN(C(=O)N3CC[C@@H]4OCC(=O)N[C@@H]4C3)C2)ccc1C(F)(F)F [Example 263, (+)-5-[1-[(4aR,8aS)-3-Oxo-4,4a,5,7,8,8a-hexahydropyrido[4,3-b][1,4]oxazine-6-carbonyl]azetidin-3-yl]oxy-2-(trifluoromethyl)benzonitrile] |  | 1100
7 | O=C1CO[C@H]2CCN(C(=O)N3CC(Oc4ccc(Cl)c(Br)c4)C3)C[C@H]2N1 [Example 264] |  | 84
8 | O=C1CO[C@H]2CCN(C(=O)N3CC(Oc4ccc(C(F)(F)F)c(N5CC6(CCC6)C5)c4)C3)C[C@H]2N1 [Example 265, (+)-(4aR,8aS)-6-[3-[3-(2-Azaspiro[3.3]heptan-2-yl)-4-(trifluoromethyl)phenoxy]azetidine-1-carbonyl]-4,4a,5,7,8,8a-hexahydropyrido[4,3-b][1,4]oxazin-3-one] |  | 6
9 | CC1CN(c2cc(OC3CN(C(=O)N4CC[C@@H]5OCC(=O)N[C@@H]5C4)C3)ccc2C(F)(F)F)C1 [Example 266, (+)-(4aR,8aS)-6-[3-[3-(3-Methylazetidin-l-yl)-4-(trifluoromethyl)phenoxy]azetidine-1-carbonyl]-4,4a,5,7,8,8a-hexahydropyrido[4,3-b][l,4]oxazin-3-one] |  | 18
10 | O=C1CO[C@H]2CCN(C(=O)N3CC(Oc4ccc(C(F)(F)F)c(N5CC(F)(F)C5)c4)C3)C[C@H]2N1 [Example 267, (+)-(4aR,8aS)-6-[3-[3-(3,3-Difluoroazetidin-1-yl)-4-(trifluoromethyl)phenoxy]azetidine-1-carbonyl]-4,4a,5,7,8,8a-hexahydropyrido[4,3-b][l,4]oxazin-3-one] |  | 42
11 | CC1(F)CN(c2cc(OC3CN(C(=O)N4CC[C@@H]5OCC(=O)N[C@@H]5C4)C3)ccc2C(F)(F)F)C1 [Example 268, (+)-(4aR,8aS)-6-[3-[3-(3-Fluoro-3-methyl-azetidin-1-yl)-4-(trifluoromethyl)phenoxy]azetidine-1-carbonyl]-4,4a,5,7,8,8a-hexahydropyrido[4,3-b][l,4]oxazin-3-one] |  | 28
12 | O=C1CO[C@H]2CCN(C(=O)N3CC(Oc4ccc(C(F)(F)F)c(N5CC6(C5)CC(F)(F)C6)c4)C3)C[C@H]2N1 [Example 269, (+)-(4aR,8aS)-6-[3-[3-(6,6-Difluoro-2-azaspiro[3.3]heptan-2-yl)-4-(trifluoromethyl)phenoxy]azetidine-1-carbonyl]-4,4a,5,7,8,8a-hexahydropyrido[4,3-b][l,4]oxazin-3-one] |  | 24
13 | O=C1CO[C@H]2CCN(C(=O)N3CC(Oc4ccc(C(F)(F)F)c(N5CC6(CCCCO6)C5)c4)C3)C[C@H]2N1 [Example 270, (+)-(4aR,8aS)-6-[3-[3-(5-oxa-2-azaspiro[3.5]nonan-2-yl)-4-(trifluoromethyl)phenoxy]azetidine-1-carbonyl]-4,4a,5,7,8,8a-hexahydropyrido[4,3-b][l,4]oxazin-3-one] |  | 61
14 | O=C1CO[C@H]2CCN(C(=O)N3CC(Oc4cccc(N5CC6(CCC6)C5)c4Cl)C3)C[C@H]2N1 [Example 271, (+)-(4aR,8aS)-6-[3-[3-(2-Azaspiro[3.3]heptan-2-yl)-2-chloro-phenoxy]azetidine-1-carbonyl]-4,4a,5,7,8,8a-hexahydropyrido[4,3-b][1,4]oxazin-3-one] |  | 20
15 | CC1CN(c2cccc(OC3CN(C(=O)N4CC[C@@H]5OCC(=O)N[C@@H]5C4)C3)c2Cl)C1 [Example 272, (+)-(4aR,8aS)-6-[3-[2-Chloro-3-(3-methylazetidin-1-yl)phenoxy]azetidine-1-carbonyl]-4,4a,5,7,8,8a-hexahydropyrido[4,3-b][l,4]oxazin-3-one] |  | 94
16 | CC1(F)CN(c2cccc(OC3CN(C(=O)N4CC[C@@H]5OCC(=O)N[C@@H]5C4)C3)c2Cl)C1 [Example 273, (+)-(4aR,8aS)-6-[3-[2-Chloro-3-(3-fluoro-3-methyl-azetidin-1-yl)phenoxy]azetidine-1-carbonyl]-4,4a,5,7,8,8a-hexahydropyrido[4,3-b] [1,4] oxazin-3-one] |  | 89
17 | CC(C)(C)OC1CN(c2cccc(OC3CN(C(=O)N4CC[C@@H]5OCC(=O)N[C@@H]5C4)C3)c2Cl)C1 [Example 274, (+)-(4aR,8aS)-6-(3-(3-(3-(tert-Butoxy)azetidin-1-yl)-2-chlorophenoxy)azetidine-1-carbonyl)hexahydro-2H-pyrido[4,3-b][1,4]oxazin-3(4H)-one] |  | 126
18 | O=C1CO[C@H]2CCN(C(=O)N3CC(Oc4cccc(N5CC6(CCCO6)C5)c4Cl)C3)C[C@H]2N1 [Example 275, (+)-(4aR,8aS)-6-[3-[2-Chloro-3-(5-oxa-2-azaspiro[3.4]octan-2-yl)phenoxy]azetidine-1-carbonyl]-4,4a,5,7,8,8a-hexahydropyrido[4,3-b][1,4]oxazin-3-one] |  | 32

Row | SMILES | IC50 [1] [nM] | IC50 (MAGL) [nM]
19 | O=C1CO[C@H]2CCN(C(=O)N3CC(Oc4cccc(N5CC6(CCCCO6)C5)c4Cl)C3)C[C@H]2N1 [Example 276, (+)-(4aR,8aS)-6-[3-[2-chloro-3-(5-oxa-2-azaspiro[3.5]nonan-2-yl)phenoxy]azetidine-1-carbonyl]-4,4a,5,7,8,8a-hexahydropyrido[4,3-b][1,4]oxazin-3-one] |  | 19
20 | O=C1CO[C@H]2CCN(C(=O)N3CC(Oc4cc(Cl)cc(N5CC6(CCC6)C5)c4)C3)C[C@H]2N1 [Example 277, (+)-(4aR,8aS)-6-[3-[3-(2-Azaspiro[3.3]heptan-2-yl)-5-chloro-phenoxy]azetidine-1-carbonyl]-4,4a,5,7,8,8a-hexahydropyrido[4,3-b][1,4]oxazin-3-one] |  | 455
21 | O=C1CO[C@H]2CCN(C(=O)N3CC(Oc4cc(Cl)cc(N5CCCC5)c4)C3)C[C@H]2N1 [Example 278, (+)-(4aR,8aS)-6-[3-(3-Chloro-5-pyrrolidin-l-yl-phenoxy)azetidine-1-carbonyl]-4,4a,5,7,8,8a-hexahydropyrido[4,3-b][1,4]oxazin-3-one] |  | 211
22 | O=C1CO[C@H]2CCN(C(=O)N3CC(OCc4ccc(F)cc4C(F)(F)F)C3)C[C@H]2N1 [Example 280] |  | 41
23 | O=C1CO[C@H]2CCN(C(=O)N3CC(CC(F)(F)c4ccc(C(F)(F)F)cc4)C3)C[C@H]2N1 [Example 281] |  | 35
24 | O=C1CO[C@H]2CCN(C(=O)N3CC(Cc4cccc(OC(F)(F)F)c4)C3)C[C@H]2N1 [Example 282] |  | 136
25 | O=C1CO[C@H]2CCN(C(=O)N3CCC(Oc4cc(C(F)(F)F)ccc4F)C3)C[C@H]2N1 (some centres unmarked) [Example 283] |  | 179
26 | O=C1CO[C@H]2CCN(C(=O)N3CCC(Oc4cc(C(F)(F)F)ccc4Cl)C3)C[C@H]2N1 (some centres unmarked) [Example 284] |  | 72
27 | O=C1CO[C@H]2CCN(C(=O)N3CCC(Oc4cc(C(F)(F)F)ccc4F)C3)C[C@H]2N1 (some centres unmarked) [Example 285] |  | 2600
28 | O=C1CO[C@H]2CCN(C(=O)N3CCC(Oc4cc(C(F)(F)F)ccc4F)C3)C[C@H]2N1 (some centres unmarked) [Example 286] |  | 128
29 | Cc1ccc(/C=C/C2CN(C(=O)N3CC[C@@H]4OCC(=O)N[C@@H]4C3)C2)c(F)c1 [Example 287] |  | 6
30 | O=C1CO[C@H]2CCN(C(=O)N3CC(OCc4ccc(OC(F)(F)F)c(F)c4)C3)C[C@H]2N1 [Example 288] |  | 53
31 | O=C1CO[C@H]2CCN(C(=O)N3CC(/C=C/c4c(F)cccc4C(F)(F)F)C3)C[C@H]2N1 [Example 289] |  | 3
32 | Cc1cccc(COC2CN(C(=O)N3CC[C@@H]4OCC(=O)N[C@@H]4C3)C2)c1C [Example 290] |  | 44
33 | Cc1ccc(COC2CN(C(=O)N3CC[C@@H]4OCC(=O)N[C@@H]4C3)C2)c(C)c1 [Example 291] |  | 28
34 | Cc1cc(C(F)(F)F)ccc1COC1CN(C(=O)N2CC[C@@H]3OCC(=O)N[C@@H]3C2)C1 [Example 292] |  | 5
35 | Cc1ccc(COC2CN(C(=O)N3CC[C@@H]4OCC(=O)N[C@@H]4C3)C2)cc1C(F)(F)F [Example 294] |  | 3000
